A word on the IC50: it is the concentration that gives 50% inhibition.

The structures appear in SMILES notation.

The test has as its target T1, Recombinant human renin (Homo sapiens, UniProt P00797).
T1 construct: isolate the active form (residues 67-406); made in house; host or cells: FreeStyle 293-F cells (transient expression of pcDNA3.1(+)/hREN)
T1 sequence (P00797 67-406): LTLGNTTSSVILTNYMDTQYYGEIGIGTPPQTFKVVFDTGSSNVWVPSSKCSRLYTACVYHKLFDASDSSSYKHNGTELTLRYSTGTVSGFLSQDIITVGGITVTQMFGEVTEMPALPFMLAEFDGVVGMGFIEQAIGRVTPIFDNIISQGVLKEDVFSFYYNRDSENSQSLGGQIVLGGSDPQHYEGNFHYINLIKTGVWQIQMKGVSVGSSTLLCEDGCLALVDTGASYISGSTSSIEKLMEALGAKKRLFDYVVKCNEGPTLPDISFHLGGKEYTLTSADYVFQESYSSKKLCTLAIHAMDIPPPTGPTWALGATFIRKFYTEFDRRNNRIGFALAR
The experiment in a line: In vitro enzymatic activity assay of renin inhibitors (fluorogenic peptide substrate). Particulars: read-out: IC50 of Exemplified Compounds Against Renin. The test is classed as biochemical. An outline of the steps:
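Recombinant human renin (3 nM final) pre-incubated 10 min at 37 °C with compounds in pH 7.4 Hepes/EDTA/DTT/0.1 mg/mL BSA/Brij35 buffer (optionally plus 2% BSA), 5% DMSO final; fluorogenic QXL520/HiLyteFluo488 peptide substrate added.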
As to `COCCCn1c([C@@H]2CCCN(C(=O)[C@@H]3CN(S(=O)(=O)c4ccc(Cl)c(Cl)c4)C[C@H]3N)C2)nc2ccccc21` [Compound 361, ((3R,4S)-4-amino-1-(3,4-dichlorophenylsulfonyl)pyrrolidin-3-yl)((R)-3-(1-(3-methoxypropyl)-1H-benzo[d]imidazol-2-yl)piperidin-1-yl)methanone], the half-maximal inhibitory concentration (IC50) lay within 100 to 1000 nM.

For `COCCCn1c([C@@H]2CCCN(C(=O)[C@@H]3CN(C(=O)c4ccc5ccccc5c4)C[C@H]3N)C2)nc2ccccc21` [Compound 362, ((3R,4S)-1-(2-naphthoyl)-4-aminopyrrolidin-3-yl)((R)-3-(1-(3-methoxypropyl)-1H-benzo[d]imidazol-2-yl)piperidin-1-yl)methanone], the concentration for half-maximal inhibition (IC50) is 100 to 1000 nM.

For the compound `COCCCn1c([C@@H]2CCCN(C(=O)[C@@H]3CN(S(=O)(=O)c4cccc(Cl)c4Cl)C[C@H]3N)C2)nc2ccccc21` [Compound 363, ((3R,4S)-4-amino-1-(2,3-dichlorophenyisulfonyl)pyrrolidin-3-yl)((R)-3-(1-(3-methoxypropyl)-1H-benzo[d]imidazol-2-yl)piperidin-1-yl)methanone], the IC50 lay in the range of 100 to 1000 nM.

Regarding `COCCCn1c([C@@H]2CCCN(C(=O)[C@@H]3CN(S(=O)(=O)c4cccc(-c5csc(C)n5)c4)C[C@H]3N)C2)nc2ccccc21` [Compound 364, ((3R,4S)-4-amino-1-(3-(2-methylthiazol-4-yl)phenylsulfonyl)pyrrolidin-3-yl)((R)-3-(1-(3-methoxypropyl)-1H-benzo[d]imidazol-2-yl)piperidin-1-yl)methanone], the IC50 lay within 100 to 1000 nM.

For `COCCCn1c([C@@H]2CCCN(C(=O)[C@@H]3CN(C(=O)c4ccc(Cl)c(Cl)c4)C[C@H]3N)C2)nc2ccccc21` [Compound 365, ((3R,4S)-4-amino-1-(3,4-dichlorobenzoyl)pyrrolidin-3-yl)((R)-3-(1-(3-methoxypropyl)-1H-benzo[d]imidazol-2-yl)piperidin-1-yl)methanone], the IC50 lay in the range of 100 to 1000 nM.

For the compound `COCCCn1c([C@@H]2CCCN(C(=O)[C@@H]3CN(C(=O)c4cccnc4Oc4ccccc4)C[C@H]3N)C2)nc2ccccc21` [Compound 366, ((3R,4S)-4-amino-1-(2-phenoxynicotinoyl)pyrrolidin-3-yl)((R)-3-(1-(3-methoxypropyl)-1H-benzo[d]imidazol-2-yl)piperidin-1-yl)methanone], the IC50 was 100 to 1000 nM.

For the compound `COCCCn1c([C@@H]2CCCN(C(=O)[C@@H]3CN(C(=O)Nc4cccc(OC)c4)C[C@H]3N)C2)nc2ccccc21` [Compound 367, (3S,4R)-3-amino-N-(3-methoxyphenyl)-4-((R)-3-(1-(3-methoxypropyl)-1H-benzo[d]imidazol-2-yl)piperidine-1-carbonyl)pyrrolidine-1-carboxamide], the half-inhibitory concentration (IC50) lay within 100 to 1000 nM.

For the compound `COCCCn1c([C@@H]2CCCN(C(=O)[C@@H]3CN(S(=O)(=O)c4cccc(Oc5ccccc5)c4)C[C@H]3N)C2)nc2ccccc21` [Compound 368, ((3R,4S)-4-amino-1-(3-phenoxyphenylsulfonyl)pyrrolidin-3-y1)((R)-3-(1-(3-methoxypropyl)-1H-benzo[d]imidazol-2-yl)piperidin-1-yl)methanone], the IC50 was in the range of 100 to 1000 nM.

Take `COCCCn1c([C@@H]2CCCN(C(=O)[C@@H]3CN(S(=O)(=O)c4ccc(OC)cc4)C[C@H]3N)C2)nc2ccccc21` [Compound 369, ((3R,4S)-4-amino-1-(4-methoxyphenylsulfonyl)pyrrolidin-3-yl)((R)-3-(1-(3-methoxypropyl)-1H-benzo[d]imidazol-2-yl)piperidin-1-yl)methanone]: the 50% inhibitory concentration (IC50) lay in the range of 100 to 1000 nM.

Take `COCCCn1c([C@@H]2CCCN(C(=O)[C@@H]3CN(S(=O)(=O)c4ccc(Cl)cc4)C[C@H]3N)C2)nc2ccccc21` [Compound 370, ((3R,4S)-4-amino-1-(4-chlorophenylsulfonyl)pyrrolidin-3-yl)((R)-3-(1-(3-methoxypropyl)-1H-benzo[d]imidazol-2-yl)piperidin-1-yl)methanone]: the concentration for half-maximal inhibition (IC50) fell in the range of 100 to 1000 nM.

For the compound `COCCCn1c([C@@H]2CCCN(C(=O)[C@@H]3CN(S(=O)(=O)C(C)C)C[C@H]3N)C2)nc2ccccc21` [Compound 371, ((3R,4S)-4-amino-1-(isopropylsulfonyl)pyrrolidin-3-yl)((R)-3-(1-(3-methoxypropyl)-1H-benzo[d]imidazol-2-yl)piperidin-1-yl)methanone], the IC50 lay in the range of 100 to 1000 nM.

On to `COCCCn1c([C@@H]2CCCN(C(=O)[C@@H]3CN(S(=O)(=O)c4ccc(OC)c(OC)c4)C[C@H]3N)C2)nc2ccccc21` [Compound 372, ((3R,4S)-4-amino-1-(3,4-dimethoxyphenylsulfonyl)pyrrolidin-3-yl)((R)-3-(1-(3-methoxypropyl)-1H-benzo[d]imidazol-2-yl)piperidin-1-yl)methanone], for which the concentration for half-maximal inhibition (IC50) fell in the range of 100 to 1000 nM.

With `COCCCn1c([C@@H]2CCCN(C(=O)[C@@H]3CN(S(=O)(=O)c4ccccc4C(=O)OC)C[C@H]3N)C2)nc2ccccc21` [Compound 373, methyl 2-((3S,4R)-3-amino-4-((R)-3-(1-(3-methoxypropyl)-1H-benzo[d]imidazol-2-yl)piperidine-1-carbonyl)pyrrolidin-l-ylsulfonyl)benzoate], the IC50 was in the range of 100 to 1000 nM.

In the case of `COCCCn1c([C@@H]2CCCN(C(=O)[C@@H]3CN(S(=O)(=O)c4ccc(C(C)(C)C)cc4)C[C@H]3N)C2)nc2ccccc21` [Compound 374, ((3R,4S)-4-amino-1-(4-tert-butylphenylsulfonyl)pyrrolidin-3-yl)((R)-3-(1-(3-methoxypropyl)-1H-benzo[d]imidazol-2-yl)piperidin-1-yl)methanone], the IC50 was in the range of 100 to 1000 nM.

For `COCCCn1c([C@@H]2CCCN(C(=O)[C@@H]3CN(C(=O)c4cccc(Cl)c4)C[C@H]3N)C2)nc2ccccc21` [Compound 375, ((3R,4S)-4-amino-1-(3-chlorobenzoyl)pyrrolidin-3-yl)((R)-3-(1-(3-methoxypropyl)-1H-benzo[d]imidazol-2-yl)piperidin-1-yl)methanone], the IC50 lay in the range of 100 to 1000 nM.

For `COCCCn1c([C@@H]2CCCN(C(=O)[C@@H]3CN(C(=O)c4cccc5ccccc45)C[C@H]3N)C2)nc2ccccc21` [Compound 376, ((3R,4S)-1-(1-naphthoyl)-4-aminopyrrolidin-3-yl)((R)-3-(1-(3-methoxypropyl)-1H-benzo[d]imidazol-2-yl)piperidin-1-yl)methanone], the IC50 lay within 100 to 1000 nM.

Turning to `COCCCn1c([C@@H]2CCCN(C(=O)[C@@H]3CN(C(=O)c4cccc(C(=O)OC)c4)C[C@H]3N)C2)nc2ccccc21` [Compound 377, methyl 3-((3S,4R)-3-amino-4-((R)-3-(1-(3-methoxypropyl)-1H-benzo[d]imidazol-2-yl)piperidine-1-carbonyl)pyrrolidine-1-carbonyl)benzoate], the IC50 lay within 100 to 1000 nM.

As for `COCCCn1c([C@@H]2CCCN(C(=O)[C@@H]3CN(C(=O)Nc4cccc(Cl)c4)C[C@H]3N)C2)nc2ccccc21` [Compound 378, (3S,4R)3-amino-N-(3-chlorophenyl)-4-((R)-3-(1-(3-methoxypropyl)-1H-benzo[d]imidazol-2-yl)piperidine-1-carbonyl)pyrrolidine-1-carboxamide], the concentration for half-maximal inhibition (IC50) lay in the range of 100 to 1000 nM.

On to `COCCCn1c([C@@H]2CCCN(C(=O)[C@@H]3CN(S(=O)(=O)c4ccccc4OC)C[C@H]3N)C2)nc2ccccc21` [Compound 379, ((3R,4S)-4-amino-1-(2-methoxyphenylsulfonyl)pyrrolidin-3-yl)((R)-3-(1-(3-methoxypropyl)-1H-benzo[d]imidazol-2-yl)piperidin-1-yl)methanone], for which the IC50 is 100 to 1000 nM.

Consider `COCCCn1c([C@@H]2CCCN(C(=O)[C@@H]3CN(S(=O)(=O)c4ccc(NC(C)=O)cc4)C[C@H]3N)C2)nc2ccccc21` [Compound 380, N-(4-((3S,4R)-3-amino-4-((R)-3-(1-(3-methoxypropyl)-1H-benzo[d]imidazol-2-yl)piperidine-1-carbonyl)pyrrolidin-1-ylsulfonyl)phenyl)acetamide], for which the IC50 fell in the range of 100 to 1000 nM.

As to `COCCCn1c([C@@H]2CCCN(C(=O)[C@@H]3CN(S(=O)(=O)c4ccc(OC)cc4[N+](=O)[O-])C[C@H]3N)C2)nc2ccccc21` [Compound 381, ((3R,4S)-4-amino-1-(4-methoxy-2-nitrophenylsulfonyl)pyrrolidin-3-yl)((R)-3-(1-(3-methoxypropyl)-1H-benzo[d]imidazol-2-yl)piperidin-1-yl)methanone], the IC50 lay in the range of 100 to 1000 nM.

As to `COCCCn1c([C@@H]2CCCN(C(=O)[C@@H]3CN(S(=O)(=O)c4ccc(N5CCCC5=O)cc4)C[C@H]3N)C2)nc2ccccc21` [Compound 382, 1-(4-((3S,4R)-3-amino-4-((R)-3-(1-(3-methoxypropyl)-1H-benzo[d]imidazol-2-yl)piperidine-1-carbonyl)pyrrolidin-1-ylsulfonyl)phenyl)pyrrolidin-2-one], the IC50 was 100 to 1000 nM.

For `COCCCn1c([C@@H]2CCCN(C(=O)[C@@H]3CN(S(=O)(=O)c4ccc(C)cc4C)C[C@H]3N)C2)nc2ccccc21` [Compound 383, ((3R,4S)-4-amino-1-(2,4-dimethylphenylsulfonyl)pyrrolidin-3-yl)((R)-3-(1-(3-methoxypropyl)-1H-benzo[d]imidazol-2-yl)piperidin-1-yl)methanone], the concentration for half-maximal inhibition (IC50) is 100 to 1000 nM.

For `COCCCn1c([C@@H]2CCCN(C(=O)[C@@H]3CN(S(=O)(=O)c4ccccc4)C[C@H]3N)C2)nc2ccccc21` [Compound 384, ((3R,4S)-4-amino-1-(phenylsulfonyl)pyrrolidin-3-yl)((R)-3-(1-(3-methoxypropyl)-1H-benzo[d]imidazol-2-yl)piperidin-1-yl)methanone], the 50% inhibitory concentration (IC50) is more than 1000 nM.

Values taken from US8138168B1 (Takeda Pharmaceutical Company Limited, priority 2007, dated 2012).
